From PMC12040169 (PLOS Biology, 2025)

Assay: in vitro
Conditions: human, hela cells, % viability

SMILES	viability at 28.5 h, 10 µM [%]
COc1ccc(CN2CCCN(c3ccnc(OCC4COc5ccccc5O4)n3)CC2)cc1 (centres unmarked) [CBK083234T]	96.8
c1ccc2c(c1)OCC(COc1nccc(N3CCCN(Cc4ccc5c(c4)OCO5)CC3)n1)O2 (centres unmarked) [CBK083235T]	85.7
CC(C)c1ccc(CN2CCCN(c3cc(OCCc4c[nH]c5ccccc45)ncn3)CC2)cc1 [CBK083280T]	106
CCN(CC)C(=O)CN1CCCN(c2cc(OCc3cc(C)on3)ncn2)CC1 [CBK083337T]	97
Clc1ccc(CN2CCCN(c3cc(OC4CCCCC4)ncn3)CC2)cc1Cl [CBK083338T]	79.5
CCN(CC)C(=O)CN1CCCN(c2cc(Oc3ccc(OC)c(OC)c3)ncn2)CC1 [CBK083359T]	98.5
N#CCCCN1CCCN(c2cc(OCC3COc4ccccc4O3)ncn2)CC1 (centres unmarked) [CBK083391T]	85.8
c1ccc(OCCN2CCCN(c3cc(OCC4COc5ccccc5O4)ncn3)CC2)cc1 (centres unmarked) [CBK083395T]	87.7
CCOC(=O)N1CCN(c2cccc3[nH]c(C(=O)O)cc23)CC1 [CBK083477]	93.9
c1cc(OCCN2CCCC2)c2cc[nH]c2c1 [CBK083478]	101
COc1ccc([C@@]23CC[C@@H](NC(=O)c4ccc(F)c(F)c4)C[C@@H]2CN(C)C3)cc1OC [CBK083504T]	90.2
COC(=O)N1CC2(CCCCC2NCc2c[nH]c(C)n2)c2ccccc21 (centres unmarked) [CBK083547T]	108
CC1=NN(c2ccccc2)C(=O)C1C(=O)c1ccccc1 (centres unmarked) [CBK083564]	99.3
COc1ccc(OC(=O)c2ccc3ncccc3c2)cc1 [CBK083572]	96.3
COc1ccc(OC(=O)c2csc(Cc3c(Cl)cccc3Cl)n2)cc1 [CBK083573]	95.7
Brc1ccc2[nH]c3c(c2c1)CCNC31CCN(CCOc2ccccc2)C1 (centres unmarked) [CBK083578]	75.5
Cc1cc(OC(=O)C2CCC(CNC(=O)OC(C)(C)C)CC2)c2c3c(c(=O)oc2c1)CCC3 (centres unmarked) [CBK083583]	103
Cc1cc(OC(=O)C2CCC(CNC(=O)OC(C)(C)C)CC2)c2c3c(c(=O)oc2c1)CCCC3 (centres unmarked) [CBK083590]	102
Clc1nccnc1N1CCCC1 [CBK083594]	101
Clc1cncc(N2CCCC2)n1 [CBK083595]	118
Clc1nc2ccccc2nc1N1CCCC1 [CBK083596]	101
Clc1cc(N2CCCC2)ncn1 [CBK083597]	99.2

SMILES	viability at 28.5 h, 10 µM [%]
c1nc(OCCN2CCOCC2)cc(N2CCCN(CCN3CCOCC3)CC2)n1 [CBK083647]	103
COc1ccc(C(NC(=O)NNC(=O)CCC(=O)c2ccc(F)cc2)c2ccccc2C)cn1 (centres unmarked) [CBK083659]	99
Nc1c(-c2ccc3c(c2)CCO3)cnc2ncccc12 [CBK083678]	96
CCCCc1ccc(-c2cnc3ncccc3c2N)cc1 [CBK083683]	96.2
CC(C)(C)c1ccc(-c2cnc3ncccc3c2N)cc1 [CBK083684]	99.9
CS(=O)(=O)c1ccc(-c2cnc3ncccc3c2N)cc1 [CBK083687]	97.5
Nc1c(-c2ccsc2)cnc2ncccc12 [CBK083707]	108
CC(C)C(=O)Nc1c(-c2ccsc2)cnc2ncccc12 [CBK083714]	88.7
CCNC(=O)Nc1ccc(-c2ccncc2)c2ccccc12 [CBK083720]	88.8
CCNC(=O)Nc1ccc(-c2ccc(SC)cc2)c2ccccc12 [CBK083723]	90.4
CCNC(=O)Nc1ccc(-c2ccc3c(c2)OCCCO3)c2ccccc12 [CBK083726]	89.4
CCNC(=O)Nc1ccc(-c2ccc(S(C)(=O)=O)cc2)c2ccccc12 [CBK083728]	88.1
CS(=O)(=O)Nc1ccc(-c2cccc(C(F)(F)F)c2)c2ccccc12 [CBK083746]	95.4
O=C1NC2(CCNCC2)Oc2ccc(-c3cccc4ncccc34)cc21 [CBK083775T]	95.3
Clc1ccc(COc2cc(N3CCCN(Cc4ccccc4-c4ccccc4)CC3)ncn2)cc1Cl [CBK083781T]	98.4
CCN1CCCN(c2cc(OCc3ccc(Cl)c(Cl)c3)ncn2)CC1 [CBK083786]	92.3
NC(=O)CN1CCCN(c2ccnc(OCCN3CCOCC3)n2)CC1 [CBK083804]	89.9
c1ccc(CCN2CCCN(c3ccnc(OCCN4CCOCC4)n3)CC2)nc1 [CBK083813]	94.9
COc1ccc(CN2CCCN(c3nccc(OCc4cc(C)on4)n3)CC2)cc1 [CBK083911]	100
Cc1cc(COc2ccnc(N3CCCN(CCCO)CC3)n2)no1 [CBK083917]	98.4
CSCCN1CCCN(c2nccc(OCc3ccc(Cl)c(Cl)c3)n2)CC1 [CBK083960]	70.5
Clc1ccc(COc2ccnc(N3CCCN(CC4CC4)CC3)n2)cc1Cl [CBK083963]	81.3
